# Values of other authors, collected in patent publication US7618650B2, “Combination of a hypnotic agent and substituted bis aryl and heteroaryl compound and therapeutic application thereof” (Aventis Pharmaceuticals Inc, priority 2005, dated 2009).
# Conditions: average dosage between 5 and 10 mg in a conventional formulation
structure (smiles),measurement,value
"Cc1ccc(-c2nc3ccc(C)cn3c2CC(=O)N(C)C)cc1 [Zolpidem, zolpidem]","half life, average value",about 2.4 hours
